Experimental data taken from the NIST ThermoML archive (doi:10.1016/j.jct.2014.05.016).
Numbers after ± are expanded uncertainties.

Test: xn = mol fraction of the nth substance listed
Conditions: 100 kPa, Liquid; for viscosity: Concentric cylinders viscometry; for mass density: Vibrating tube method

C[n+]1ccn(CCO)c1.F[B-](F)(F)F [1-(2-hydroxyethyl)-3-methylimidazolium tetrafluoroborate] + CCCCn1cc[n+](C)c1.F[B-](F)(F)F
Conditions	mass density [kg/m3]	viscosity [mPa·s]
293.15 K, x1 = 0.1003	–	141.5 ± 12
293.15 K, x1 = 0.101	1217.5 ± 1.1	–
293.15 K, x1 = 0.2001	–	138.1 ± 11
293.15 K, x1 = 0.201	1230.9 ± 1.1	–
293.15 K, x1 = 0.2997	–	139.6 ± 11
293.15 K, x1 = 0.3002	1245.7 ± 1.1	–
293.15 K, x1 = 0.3999	–	140.6 ± 11
293.15 K, x1 = 0.4006	1261.4 ± 1.1	–
293.15 K, x1 = 0.4996	–	138.7 ± 11
293.15 K, x1 = 0.5009	1276.1 ± 1.1	–
293.15 K, x1 = 0.5991	1292.3 ± 1.1	143.1 ± 12
293.15 K, x1 = 0.6997	–	144.7 ± 12
293.15 K, x1 = 0.7001	1310.8 ± 1.1	–
293.15 K, x1 = 0.7999	–	147.1 ± 12
293.15 K, x1 = 0.8	1326.3 ± 1.1	–
293.15 K, x1 = 0.8995	1344.4 ± 1.1	–
293.15 K, x1 = 0.8998	–	152.3 ± 12
293.15 K, x1 = 1	1362.4 ± 1.1	153.6 ± 12
298.15 K, x1 = 0.1003	–	107.8 ± 8.7
298.15 K, x1 = 0.101	1214 ± 1.1	–
298.15 K, x1 = 0.2001	–	105.3 ± 8.5
298.15 K, x1 = 0.201	1227.4 ± 1.1	–
298.15 K, x1 = 0.2997	–	106.6 ± 8.6
298.15 K, x1 = 0.3002	1242 ± 1.1	–
298.15 K, x1 = 0.3999	–	107.4 ± 8.7
298.15 K, x1 = 0.4006	1257.9 ± 1.1	–
298.15 K, x1 = 0.4996	–	105.4 ± 8.5
298.15 K, x1 = 0.5009	1272.5 ± 1.1	–
298.15 K, x1 = 0.5991	1288.6 ± 1.1	108.3 ± 8.7
298.15 K, x1 = 0.6997	–	109.3 ± 8.8
298.15 K, x1 = 0.7001	1307.6 ± 1.1	–
298.15 K, x1 = 0.7999	–	111.4 ± 9
298.15 K, x1 = 0.8	1322.5 ± 1.1	–
298.15 K, x1 = 0.8995	1340.6 ± 1.1	–
298.15 K, x1 = 0.8998	–	114.1 ± 9.2
298.15 K, x1 = 1	1358.7 ± 1.1	115.1 ± 9.3
303.15 K, x1 = 0.1003	–	83.64 ± 6.7
303.15 K, x1 = 0.101	1210.4 ± 1.1	–
303.15 K, x1 = 0.2001	–	81.83 ± 6.6
303.15 K, x1 = 0.201	1223.9 ± 1.1	–
303.15 K, x1 = 0.2997	–	82.64 ± 6.6
303.15 K, x1 = 0.3002	1238.5 ± 1.1	–
303.15 K, x1 = 0.3999	–	83.2 ± 6.7
303.15 K, x1 = 0.4006	1254.3 ± 1.1	–
303.15 K, x1 = 0.4996	–	81.76 ± 6.6
303.15 K, x1 = 0.5009	1268.9 ± 1.1	–
303.15 K, x1 = 0.5991	1284.9 ± 1.1	83.78 ± 6.7
303.15 K, x1 = 0.6997	–	84.42 ± 6.8
303.15 K, x1 = 0.7001	1304.2 ± 1.1	–
303.15 K, x1 = 0.7999	–	85.38 ± 6.9
303.15 K, x1 = 0.8	1318.9 ± 1.1	–
303.15 K, x1 = 0.8995	1336.9 ± 1.1	–
303.15 K, x1 = 0.8998	–	87.51 ± 7
303.15 K, x1 = 1	1354.8 ± 1.1	87.98 ± 7.1
308.15 K, x1 = 0.1003	–	66.1 ± 5.3
308.15 K, x1 = 0.101	1206.9 ± 1.1	–
308.15 K, x1 = 0.2001	–	64.77 ± 5.2
308.15 K, x1 = 0.201	1220.5 ± 1.1	–
308.15 K, x1 = 0.2997	–	65.41 ± 5.2
308.15 K, x1 = 0.3002	1234.9 ± 1.1	–
308.15 K, x1 = 0.3999	–	65.73 ± 5.3
308.15 K, x1 = 0.4006	1250.7 ± 1.1	–
308.15 K, x1 = 0.4996	–	64.71 ± 5.2
308.15 K, x1 = 0.5009	1265.2 ± 1.1	–
308.15 K, x1 = 0.5991	1281.3 ± 1.1	66.04 ± 5.3
308.15 K, x1 = 0.6997	–	66.38 ± 5.3
308.15 K, x1 = 0.7001	1300.8 ± 1.1	–
308.15 K, x1 = 0.7999	–	67.14 ± 5.4
308.15 K, x1 = 0.8	1315.2 ± 1.1	–
308.15 K, x1 = 0.8995	1333.1 ± 1.1	–
308.15 K, x1 = 0.8998	–	68.51 ± 5.5
308.15 K, x1 = 1	1351.2 ± 1.1	68.59 ± 5.5
313.15 K, x1 = 0.1003	–	53.11 ± 4.3
313.15 K, x1 = 0.101	1203.3 ± 1.1	–
313.15 K, x1 = 0.2001	–	52.17 ± 4.2
313.15 K, x1 = 0.201	1216.9 ± 1.1	–
313.15 K, x1 = 0.2997	–	52.58 ± 4.2
313.15 K, x1 = 0.3002	1231.3 ± 1.1	–
313.15 K, x1 = 0.3999	–	52.83 ± 4.2
313.15 K, x1 = 0.4006	1247.1 ± 1.1	–
313.15 K, x1 = 0.4996	–	51.96 ± 4.2
313.15 K, x1 = 0.5009	1261.6 ± 1.1	–
313.15 K, x1 = 0.5991	1277.7 ± 1.1	52.99 ± 4.2
313.15 K, x1 = 0.6997	–	53.19 ± 4.3
313.15 K, x1 = 0.7001	1297.3 ± 1.1	–
313.15 K, x1 = 0.7999	–	53.69 ± 4.3
313.15 K, x1 = 0.8	1311.5 ± 1.1	–
313.15 K, x1 = 0.8995	1329.4 ± 1.1	–
313.15 K, x1 = 0.8998	–	54.68 ± 4.4
313.15 K, x1 = 1	1347.4 ± 1.1	54.81 ± 4.4
318.15 K, x1 = 0.1003	–	43.44 ± 3.5
318.15 K, x1 = 0.2001	–	42.58 ± 3.4
318.15 K, x1 = 0.2997	–	42.92 ± 3.4
318.15 K, x1 = 0.3999	–	43.11 ± 3.5
318.15 K, x1 = 0.4996	–	42.41 ± 3.4
318.15 K, x1 = 0.5991	–	43.22 ± 3.5
318.15 K, x1 = 0.6997	–	43.31 ± 3.5
318.15 K, x1 = 0.7999	–	43.66 ± 3.5
318.15 K, x1 = 0.8998	–	44.39 ± 3.6
318.15 K, x1 = 1	–	44.44 ± 3.6
